Experimental data as given in PubChem BioAssay AID2060901 (Molecular Pharmacology Branch, DTP, NCI, 2025).
Several values for one entry are separate records, joined by “and”; a condition that tells them apart may be missing. Equal values may be shown once.

Tested on: 422866-222-R5-J1-PDC complex spheroids viability
Experiment: Anticancer human tumor 422866-222-R5-J1-PDC patient-derived pancreatic adenocarcinoma cell line growth inhibition [RAS]
Conditions: for viability, T/C: stronger effect = lower value
Text: RAS pathway inhibitors in Combinations in Complex Spheroids
A high-throughput screen of multi-cell type tumor spheroids was designed to identify active combinations of RAS pathway inhibitors and targeted small molecules. Complex spheroids include a stromal component modeled by human endothelial cells (HUVEC) and fibroblasts modeled by human mesenchymal stem cells (MSCs). The concentration ranges selected for each drug and investigational agent were based upon clinically achievable concentrations if the clinical Cmax of the agent was known.
Compounds. The drugs and investigational agents: abemaciclib (NSC768073), cobimetinib (NSC768068), divarasib (GDC6063, NSC841802), docetaxel (NSC628503), GDC-1971 (RLY-1971, NSC841576), gemcitabine (NSC613327), inavolisib (NSC800729), ipatasertib (NSC767898), KB-0742 (NSC834161), MRTX-1133 (NSC836407), osimertinib (NSC779217), RMC-4630 (NSC839698), RMC-6236 (NSC851965), RMC-6291 (NSC852671), Ro-3306 (NSC812927), sapanisertib (NSC764658), SN-38 (NSC673596), staurosporine (NSC755774), SY5609 (NSC837396), and tovorafenib (DAY101, NSC766906), were obtained from the National Cancer Institute (NCI) Developmental Therapeutics Program Chemical Repository. The FDA-approved anticancer drug set is available from the NCI Developmental Therapeutics Program. […] The stock solutions were prepared in dimethyl sulfoxide (DMSO, Sigma-Aldrich, St. Louis, MO, cat. D2650) at 800-fold the tested concentration and stored at -70 degrees C prior to their use. All drugs and investigational agents were tested over a range starting from a high concentration at or near the clinical Cmax and decreasing in half-log increments. If the clinical Cmax for an agent had not been determined, the highest concentration tested was 10 microM.
Cell Culture. All cells were maintained in an incubator at 37 degrees C and 5% CO2 with 95% humidity. The PDC lines were cultured according to standard operating procedures established by the NCI PDMR. All PDCs were thawed and cultured in Matrigel-coated flasks prepared with a working solution of 1X Ham's F-12 nutrient mix, without supplementation (Invitrogen, Waltham, MA, cat. 11765054), 100 U/mL penicillin-streptomycin (Invitrogen, cat. 15140122), and 2.5% Matrigel (Corning Inc., Corning, NY, cat. 354248) for the first three passages. The 362531-283-R-J2-PDC and 782815-120-R-J1-PDC lines were cultured in 6C/Colon 1B media, which includes advanced DMEM/F-12 (Thermo Fisher Scientific, cat. 12634028), 10 mM HEPES (Thermo Fisher Scientific, cat. 15630080), 1X GlutaMAX supplement (Thermo Fisher Scientific, cat. 35050061), 0.1 mg/mL primocin (InvivoGen, San Diego, CA, cat. ant-pm-2), 10% defined fetal bovine serum, heat inactivated (HyClone Laboratories Inc., Logan, UT, cat. SH30070.03HI), 50% L-WRN conditioned media (ATCC, cat. CRL-3276), 1.25 mM N-Acetyl-L-cysteine (Sigma-Aldrich, cat. A9165), 10 mM nicotinamide (Sigma-Aldrich, cat. N0636), 1X B-27 supplement (Thermo Fisher Scientific, cat. 17504044), 1X N-2 supplement (Thermo Fisher Scientific, cat. 17502048), 50 ng/mL human EGF (Thermo Fisher Scientific, cat. PHG0311), and 10 microM Y-27632 dihydrochloride (Tocris Bioscience, cat. 1254). The K12877-001-R-J1-PDC line was cultured in 6I media, which includes all 6C/Colon 1B media plus 10 ng/mL human FGF-10 (PeproTech, cat. 100-26), 1 ng/mL human FGF-2 (PeproTech, cat. 100-18B), 1 µM prostaglandin E2 (Tocris Bioscience, cat. 2296), […] hydrocortisone (Sigma-Aldrich, cat. H4001), and […] bovine insulin (Sigma-Aldrich, cat. I6634). The K86415-001-R-J1-PDC line was cultured in 6D media, which includes all 6C/Colon 1B media components minus the L-WRN conditioned media. The 485176-168-R4-J1-PDC was cultured in PANC media, which includes all 6C/Colon 1B media plus 100 ng/mL human FGF-10 (PeproTech, cat. 100-26), 500 nM SB-431542 (Selleckchem, cat. S1067), and 10 nM gastrin (Tocris Bioscience, cat. 3006). […]

[1] = compound alone, run of 06/10/2024
[2] = compound alone, run of 05/20/2024
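Further: spheroids exposed to compounds for 7 days.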
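Wherever viability, T/C is given: 100% = DMSO vehicle control viability.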

SMILES	viability, T/C (compound 0.0316 µM)	viability, T/C (compound 0.316 µM)	viability, T/C (compound 1 µM)	viability, T/C (compound 10 µM)	viability, T/C (compound 0.1 µM)	IC50 (curve of compound)	further results
C#Cc1c(F)ccc2cc(O)cc(-c3ncc4c(N5CC6CCC(C5)N6)nc(OCC56CCCN5CC(F)C6)nc4c3F)c12 (stereo unspecified)	98.7% [middle of 8 runs]	67.4% [middle of 8 runs]	51.8% [middle of 8 runs]	26.2% [middle of 8 runs]	–	–	viability, T/C (compound 3.16 µM): 37.3% [middle of 8 runs]; IC50 [1]: 1.11 µM [middle of 8 runs]
C=CC(=O)N1CCN(c2nc(OCC3CCCN3C)nc3c(F)c(-c4nc(N)cc(C)c4C(F)(F)F)c(Cl)cc23)C(C)C1 (stereo unspecified)	24.1% [middle of 12 runs]	26.7% [middle of 12 runs]	26.5% [middle of 12 runs]	–	24.8% [middle of 12 runs]	< 0.00316 µM	viability, T/C (compound 0.00316 µM): 28% [middle of 12 runs]; viability, T/C (compound 0.01 µM): 27.2% [middle of 12 runs]; IC50 [1]: < 0.00316 µM
C=CC(=O)Nc1cc(Nc2nccc(-c3cn(C)c4ccccc34)n2)c(OC)cc1N(C)CCN(C)C	87.1% [middle of 4 runs]	77.7% [middle of 4 runs]	–	–	–	> 1 µM	viability, T/C (compound 0.00316 µM): 106% [middle of 4 runs]; viability, T/C (compound 0.01 µM): 74.7% and 114% (2×) and 81.9%
CC(=O)OC12COC1CC(O)C1(C)C(=O)C(O)C3=C(C)C(OC(=O)C(O)C(NC(=O)OC(C)(C)C)c4ccccc4)CC(O)(C(OC(=O)c4ccccc4)C21)C3(C)C (stereo unspecified)	60% [middle of 4 runs]	71.4% [middle of 4 runs]	78.2% [middle of 4 runs]	77.4% [middle of 4 runs]	71.8% [middle of 4 runs]	> 10 µM	–
CC(C)NCC(C(=O)N1CCN(c2ncnc3c2C(C)CC3O)CC1)c1ccc(Cl)cc1 (stereo unspecified)	92.2% [middle of 4 runs]	–	–	133% (2×) and 147% and 160%	93.6% [middle of 4 runs]	> 10 µM	–
CC(C)n1nc(-c2ccc3oc(N)nc3c2)c2c(N)ncnc21	–	–	–	–	–	> 0.1 µM	viability, T/C (compound 0.000316 µM): 103% [middle of 4 runs]; viability, T/C (compound 0.001 µM): 82.4% [middle of 4 runs]; viability, T/C (compound 0.01 µM): 94% [middle of 4 runs]
CC(Nc1ccc2c(c1)OCCn1cc(N3C(=O)OCC3C(F)F)nc1-2)C(N)=O (stereo unspecified)	75.3% [middle of 4 runs]	42.6% [middle of 4 runs]	39.3% [middle of 4 runs]	26.1% and 23.8% and 27% (2×)	53.4% [middle of 4 runs]	–	–
CC1(C)CCC(Nc2ncc(C(F)(F)F)c(-c3c[nH]c4c(P(C)(C)=O)c(C#N)ccc34)n2)CN1 (stereo unspecified)	–	–	–	–	–	> 0.3 µM	viability, T/C (compound 0.003 µM): 93% [middle of 4 runs]; viability, T/C (compound 0.00949 µM): 78.1% [middle of 4 runs]; viability, T/C (compound 0.03 µM): 73.1% [middle of 4 runs]; viability, T/C (compound 0.0949 µM): 67.2% [middle of 4 runs]; viability, T/C (compound 0.3 µM): 69.9% [middle of 4 runs]
CC1(O)CCCC1n1c(=O)c(C(F)F)cc2cnc(NC3CCN(S(C)(=O)=O)CC3)nc21 (stereo unspecified)	82.7% [middle of 4 runs]	85.5% [middle of 4 runs]	91.1% [middle of 4 runs]	58.4% [middle of 4 runs]	–	8.91 µM and > 10 µM and 9.3 µM	–
CCC(CC)c1cc(NC2CCC(N)C2)n2nccc2n1 (stereo unspecified)	99.2% [middle of 4 runs]	116% [middle of 4 runs]	106% [middle of 4 runs]	37.6% [middle of 4 runs]	–	2.36 µM [middle of 4 runs]	viability, T/C (compound 3.16 µM): 29.1% [middle of 4 runs]
CCN1CCN(Cc2ccc(Nc3ncc(F)c(-c4cc(F)c5nc(C)n(C(C)C)c5c4)n3)nc2)CC1	90.8% [middle of 4 runs]	78% [middle of 4 runs]	87.2% [middle of 4 runs]	–	77.8% [middle of 4 runs]	> 1 µM	viability, T/C (compound 0.00316 µM): 93% [middle of 4 runs]
CCc1c2c(nc3ccc(O)cc13)-c1cc3c(c(=O)n1C2)COC(=O)[C@]3(O)CC	–	–	–	–	–	–	viability, T/C (compound 0.000949 µM): 77.2% [middle of 4 runs]; viability, T/C (compound 0.003 µM): 51.2% [middle of 4 runs]; viability, T/C (compound 0.00949 µM): 51.5% [middle of 4 runs]; viability, T/C (compound 0.03 µM): 53.4% [middle of 4 runs]; viability, T/C (compound 0.3 µM): 41.4% [middle of 4 runs]
CCn1c(-c2cc(N3CCN(C)CC3)cnc2C(C)OC)c2c3cc(ccc31)-c1csc(n1)CC(NC(=O)C1CC1C)C(=O)N1CCCC(N1)C(=O)OCC(C)(C)C2 (stereo unspecified)	–	–	–	–	–	–	viability, T/C (compound 0.000949 µM): 29.7% [middle of 8 runs]; viability, T/C (compound 0.003 µM): 22.6% [middle of 8 runs]; viability, T/C (compound 0.00949 µM): 19.6% [middle of 8 runs]; viability, T/C (compound 0.03 µM): 20.2% [middle of 8 runs]; viability, T/C (compound 0.0949 µM): 23% [middle of 8 runs]; viability, T/C (compound 0.3 µM): 21.7% [middle of 8 runs]; IC50 [2]: < 0.000949 µM
CCn1c(-c2cccnc2C(C)OC)c2c3cc(ccc31)N1CCOC(CC(NC(=O)C(C(C)C)N(C)C(=O)C3(F)CCN(C(=O)C#CC(C)(C)N(C)C)CC3)C(=O)N3CCCC(N3)C(=O)OCC(C)(C)C2)C1 (stereo unspecified)	–	–	–	–	–	–	viability, T/C (compound 0.000949 µM): 25.9% [middle of 8 runs]; viability, T/C (compound 0.003 µM): 23.3% [middle of 8 runs]; viability, T/C (compound 0.00949 µM): 21.9% [middle of 8 runs]; viability, T/C (compound 0.03 µM): 22.1% [middle of 8 runs]; viability, T/C (compound 0.0949 µM): 22.5% [middle of 8 runs]; viability, T/C (compound 0.3 µM): 20.2% [middle of 8 runs]; IC50 [2]: < 0.000949 µM
C[C@@H](NC(=O)c1ncnc(N)c1Cl)c1ncc(C(=O)Nc2cc(C(F)(F)F)c(Cl)cn2)s1	131% and 103% (2×) and 113%	119% [middle of 4 runs]	118% [middle of 4 runs]	76.6% [middle of 4 runs]	124% and 116% (2×) and 104%	> 10 µM	viability, T/C (compound 3.16 µM): 104% (2×) and 83.4% and 92.5%
NC1c2ccccc2OC12CCN(c1cnc3c(N4CCCc5ncccc54)n[nH]c3n1)CC2 (stereo unspecified)	51.6% [middle of 4 runs]	40.2% [middle of 4 runs]	40% [middle of 4 runs]	33.8% [middle of 4 runs]	45.3% [middle of 4 runs]	0.29 µM and < 0.0316 µM	viability, T/C (compound 3.16 µM): 36.7% [middle of 4 runs]
Nc1ccn(C2OC(CO)C(O)C2(F)F)c(=O)n1 (stereo unspecified)	72.5% [middle of 4 runs]	42.9% [middle of 4 runs]	37.8% [middle of 4 runs]	–	55% [middle of 4 runs]	–	viability, T/C (compound 0.00316 µM): 91.2% [middle of 4 runs]; viability, T/C (compound 0.01 µM): 82.8% [middle of 4 runs]
O=C(c1ccc(F)c(F)c1Nc1ccc(I)cc1F)N1CC(O)([C@@H]2CCCCN2)C1	60.7% [middle of 4 runs]	45.2% [middle of 4 runs]	39.2% [middle of 4 runs]	–	57% [middle of 4 runs]	–	viability, T/C (compound 0.00316 µM): 98.2% [middle of 4 runs]; viability, T/C (compound 0.01 µM): 74.8% [middle of 4 runs]
